Assay in all cases: relative viability (nuclei count vs DMSO), 5 days (fraction); higher = more cells survive
Compound in the test “Doramapimod + OSI-027”: Cc1ccc(-n2nc(C(C)(C)C)cc2NC(=O)Nc2ccc(OCCN3CCOCC3)c3ccccc23)cc1 [Doramapimod] + COc1cccc2cc(-c3nc([C@H]4CC[C@H](C(=O)O)CC4)n4ncnc(N)c34)[nH]c12 [OSI-027] (partner 0.5 µM)
In short, it runs like this: (§1)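 Cells from lung cancer lines were seeded into 1536-well plates and, one day later, dosed by pin tool. Treatments were either a single drug or a fixed dose of an anchor drug with five library-drug doses (not always all listed) in √10 steps. After 5 days, nuclei were stained in a one-step fixation (final 0.05% Triton X-100, 1% formaldehyde, 1 ug/ml Hoechst) and counted on 4× images, and relative viability is the treated-to-vehicle nuclei ratio, as the median of duplicate plates.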

Compound in the test “IPA-3 + Tozasertib”: C1=CC=C2C(=C1)C=CC(=C2SSC3=C(C=CC4=CC=CC=C43)O)O [IPA-3] + Cc1cc(Nc2cc(N3CCN(C)CC3)nc(Sc3ccc(NC(=O)C4CC4)cc3)n2)n[nH]1 [Tozasertib] (partner 0.1 µM)
A digest of the protocol:
as §1

Compound in the test “RAF265 + Vorinostat”: Cn1c(Nc2ccc(C(F)(F)F)cc2)nc2cc(Oc3ccnc(-c4ncc(C(F)(F)F)[nH]4)c3)ccc21 [RAF265] + O=C(CCCCCCC(=O)Nc1ccccc1)NO [Vorinostat] (partner 1 µM)
A digest of the protocol: as §1

Compound in the test “RAF265 + Pictilisib”: Cn1c(Nc2ccc(C(F)(F)F)cc2)nc2cc(Oc3ccnc(-c4ncc(C(F)(F)F)[nH]4)c3)ccc21 [RAF265] + CS(=O)(=O)N1CCN(Cc2cc3nc(-c4cccc5[nH]ncc45)nc(N4CCOCC4)c3s2)CC1 [Pictilisib] (partner 1 µM)
A digest of the protocol: as §1

Turning to NCI-H1755, the relative viability in the test with Doramapimod + OSI-027 (first compound 0.02 µM) was 0.709; with Doramapimod + OSI-027 (first compound 0.06325 µM), 0.659; with Doramapimod + OSI-027 (first compound 0.2 µM), 0.727; with Doramapimod + OSI-027 (first compound 0.6325 µM), 0.669; in the test with Doramapimod + OSI-027 (first compound 2 µM), 0.586; in the test with IPA-3 + Tozasertib (first compound 0.2 µM), 0.586. In addition, the relative viability stood at 0.568 with IPA-3 + Tozasertib (first compound 0.6325 µM); 0.552 with IPA-3 + Tozasertib (first compound 2 µM); 0.561 in the test with IPA-3 + Tozasertib (first compound 6.325 µM); 0.504 in the test with IPA-3 + Tozasertib (first compound 20 µM); 0.8 in the test with RAF265 + Vorinostat (first compound 0.01 µM); 0.663 with RAF265 + Vorinostat (first compound 0.03162 µM). Also, the relative viability is 0.694 with RAF265 + Vorinostat (first compound 0.1 µM); 0.579 with RAF265 + Vorinostat (first compound 0.3162 µM); 0.476 with RAF265 + Vorinostat (first compound 1 µM); 0.47 in the test with RAF265 + Pictilisib (first compound 0.01 µM); 0.287 in the test with RAF265 + Pictilisib (first compound 0.03162 µM); 0.264 with RAF265 + Pictilisib (first compound 0.1 µM). The relative viability is 0.238 with RAF265 + Pictilisib (first compound 0.3162 µM) and 0.148 with RAF265 + Pictilisib (first compound 1 µM).
Regarding NCI-H1793, the relative viability with Doramapimod + OSI-027 (first compound 0.02 µM) was found to be 0.238; with Doramapimod + OSI-027 (first compound 0.06325 µM), 0.262; in the test with Doramapimod + OSI-027 (first compound 0.2 µM) it was 0.278; in the test with Doramapimod + OSI-027 (first compound 0.6325 µM), 0.36; with Doramapimod + OSI-027 (first compound 2 µM), 0.242; in the test with IPA-3 + Tozasertib (first compound 0.2 µM), 0.316. Also, the relative viability in the test with IPA-3 + Tozasertib (first compound 0.6325 µM) was 0.271; with IPA-3 + Tozasertib (first compound 2 µM), 0.368; with IPA-3 + Tozasertib (first compound 6.325 µM), 0.377; in the test with IPA-3 + Tozasertib (first compound 20 µM) it was 0.425; with RAF265 + Vorinostat (first compound 0.01 µM) it was 0.865; with RAF265 + Vorinostat (first compound 0.03162 µM), 0.697. Besides, the relative viability in the test with RAF265 + Vorinostat (first compound 0.1 µM) was 0.633; with RAF265 + Vorinostat (first compound 0.3162 µM), 0.201; in the test with RAF265 + Vorinostat (first compound 1 µM) it was 0.311; with RAF265 + Pictilisib (first compound 0.01 µM) it was 0.296; in the test with RAF265 + Pictilisib (first compound 0.03162 µM), 0.267; with RAF265 + Pictilisib (first compound 0.1 µM), 0.447. In addition, the relative viability with RAF265 + Pictilisib (first compound 0.3162 µM) amounted to 0.216; in the test with RAF265 + Pictilisib (first compound 1 µM), 0.179.
In the case of NCI-H1915, the relative viability with Doramapimod + OSI-027 (first compound 0.02 µM) was determined as 0.591; with Doramapimod + OSI-027 (first compound 0.06325 µM), 0.622; with Doramapimod + OSI-027 (first compound 0.2 µM), 0.671; in the test with Doramapimod + OSI-027 (first compound 0.6325 µM), 0.606; in the test with Doramapimod + OSI-027 (first compound 2 µM), 0.561; with IPA-3 + Tozasertib (first compound 0.2 µM), 0.466. For the same cell line, the relative viability turned out to be 0.425 in the test with IPA-3 + Tozasertib (first compound 0.6325 µM); 0.446 with IPA-3 + Tozasertib (first compound 2 µM); 0.428 in the test with IPA-3 + Tozasertib (first compound 6.325 µM); 0.513 with IPA-3 + Tozasertib (first compound 20 µM); 0.502 with RAF265 + Vorinostat (first compound 0.01 µM); 0.436 with RAF265 + Vorinostat (first compound 0.03162 µM). Further, the relative viability with RAF265 + Vorinostat (first compound 0.1 µM) was 0.424; with RAF265 + Vorinostat (first compound 0.3162 µM) it was 0.296; in the test with RAF265 + Vorinostat (first compound 1 µM) it was 0.201; with RAF265 + Pictilisib (first compound 0.01 µM), 0.965; with RAF265 + Pictilisib (first compound 0.03162 µM), 0.914; with RAF265 + Pictilisib (first compound 0.1 µM), 0.705. Besides, the relative viability with RAF265 + Pictilisib (first compound 0.3162 µM) was 0.37; in the test with RAF265 + Pictilisib (first compound 1 µM), 0.247.
Regarding NCI-H1944, the relative viability in the test with Doramapimod + OSI-027 (first compound 0.02 µM) is 0.365; with Doramapimod + OSI-027 (first compound 0.06325 µM) it was 0.451; with Doramapimod + OSI-027 (first compound 0.2 µM) it was 0.352; with Doramapimod + OSI-027 (first compound 0.6325 µM), 0.492; with Doramapimod + OSI-027 (first compound 2 µM), 0.286; with IPA-3 + Tozasertib (first compound 0.2 µM), 0.263. Also, the relative viability was determined as 0.268 with IPA-3 + Tozasertib (first compound 0.6325 µM); 0.264 with IPA-3 + Tozasertib (first compound 2 µM); 0.246 in the test with IPA-3 + Tozasertib (first compound 6.325 µM); 0.26 with IPA-3 + Tozasertib (first compound 20 µM); 0.674 with RAF265 + Vorinostat (first compound 0.01 µM); 0.602 in the test with RAF265 + Vorinostat (first compound 0.03162 µM). The relative viability in the test with RAF265 + Vorinostat (first compound 0.1 µM) was found to be 0.55; in the test with RAF265 + Vorinostat (first compound 0.3162 µM), 0.405; in the test with RAF265 + Vorinostat (first compound 1 µM), 0.491; with RAF265 + Pictilisib (first compound 0.01 µM), 0.339; with RAF265 + Pictilisib (first compound 0.03162 µM), 0.343; with RAF265 + Pictilisib (first compound 0.1 µM), 0.334. In addition, the values for the relative viability in the test with RAF265 + Pictilisib (first compound 0.3162 µM) and with RAF265 + Pictilisib (first compound 1 µM) were 0.293 and 0.258, respectively.
As for NCI-H1975, the relative viability is 0.703 with Doramapimod + OSI-027 (first compound 0.02 µM); 0.741 in the test with Doramapimod + OSI-027 (first compound 0.06325 µM); 0.802 in the test with Doramapimod + OSI-027 (first compound 0.2 µM); 0.792 in the test with Doramapimod + OSI-027 (first compound 0.6325 µM); 0.663 in the test with Doramapimod + OSI-027 (first compound 2 µM); 0.833 in the test with IPA-3 + Tozasertib (first compound 0.2 µM). Further, the relative viability with IPA-3 + Tozasertib (first compound 0.6325 µM) stood at 0.685; with IPA-3 + Tozasertib (first compound 2 µM) it was 0.855; in the test with IPA-3 + Tozasertib (first compound 6.325 µM) it was 0.906; with IPA-3 + Tozasertib (first compound 20 µM), 0.755; in the test with RAF265 + Vorinostat (first compound 0.01 µM), 0.718; with RAF265 + Vorinostat (first compound 0.03162 µM) it was 0.644. Moreover, the relative viability in the test with RAF265 + Vorinostat (first compound 0.1 µM) is 0.542; in the test with RAF265 + Vorinostat (first compound 0.3162 µM), 0.338; in the test with RAF265 + Vorinostat (first compound 1 µM), 0.325; with RAF265 + Pictilisib (first compound 0.01 µM) it was 0.287; with RAF265 + Pictilisib (first compound 0.03162 µM), 0.213; with RAF265 + Pictilisib (first compound 0.1 µM), 0.162. In addition, the results for the relative viability with RAF265 + Pictilisib (first compound 0.3162 µM) and in the test with RAF265 + Pictilisib (first compound 1 µM) were 0.155 and 0.103, respectively.
As to NCI-H1993, the relative viability in the test with Doramapimod + OSI-027 (first compound 0.02 µM) came to 0.573; with Doramapimod + OSI-027 (first compound 0.06325 µM), 0.566; in the test with Doramapimod + OSI-027 (first compound 0.2 µM), 0.59; with Doramapimod + OSI-027 (first compound 0.6325 µM) it was 0.495; with Doramapimod + OSI-027 (first compound 2 µM) it was 0.522; with IPA-3 + Tozasertib (first compound 0.2 µM) it was 0.625. Moreover, the relative viability with IPA-3 + Tozasertib (first compound 0.6325 µM) was determined as 0.578; in the test with IPA-3 + Tozasertib (first compound 2 µM), 0.586; in the test with IPA-3 + Tozasertib (first compound 6.325 µM) it was 0.56; with IPA-3 + Tozasertib (first compound 20 µM) it was 0.601; in the test with RAF265 + Vorinostat (first compound 0.01 µM), 0.9; with RAF265 + Vorinostat (first compound 0.03162 µM), 0.902. The relative viability with RAF265 + Vorinostat (first compound 0.1 µM) was determined as 0.756; with RAF265 + Vorinostat (first compound 0.3162 µM), 0.823; with RAF265 + Vorinostat (first compound 1 µM) it was 0.768; in the test with RAF265 + Pictilisib (first compound 0.01 µM), 0.888; with RAF265 + Pictilisib (first compound 0.03162 µM), 0.805; with RAF265 + Pictilisib (first compound 0.1 µM), 0.934. Moreover, the relative viability is 0.824 with RAF265 + Pictilisib (first compound 0.3162 µM) and 0.763 with RAF265 + Pictilisib (first compound 1 µM).
Regarding NCI-H2009, the relative viability was 0.657 with Doramapimod + OSI-027 (first compound 0.02 µM); 0.72 in the test with Doramapimod + OSI-027 (first compound 0.06325 µM); 0.773 in the test with Doramapimod + OSI-027 (first compound 0.2 µM); 0.765 in the test with Doramapimod + OSI-027 (first compound 0.6325 µM); 0.587 in the test with Doramapimod + OSI-027 (first compound 2 µM); 0.805 with IPA-3 + Tozasertib (first compound 0.2 µM). In addition, the relative viability in the test with IPA-3 + Tozasertib (first compound 0.6325 µM) is 0.681; with IPA-3 + Tozasertib (first compound 2 µM), 0.834; with IPA-3 + Tozasertib (first compound 6.325 µM), 0.718; with IPA-3 + Tozasertib (first compound 20 µM) it was 0.725; with RAF265 + Vorinostat (first compound 0.01 µM), 0.744; with RAF265 + Vorinostat (first compound 0.03162 µM), 0.649. Moreover, the relative viability is 0.757 with RAF265 + Vorinostat (first compound 0.1 µM); 0.761 in the test with RAF265 + Vorinostat (first compound 0.3162 µM); 0.512 in the test with RAF265 + Vorinostat (first compound 1 µM); 0.884 with RAF265 + Pictilisib (first compound 0.01 µM); 0.539 in the test with RAF265 + Pictilisib (first compound 0.03162 µM); 0.444 with RAF265 + Pictilisib (first compound 0.1 µM). Moreover, the figures for the relative viability with RAF265 + Pictilisib (first compound 0.3162 µM) and in the test with RAF265 + Pictilisib (first compound 1 µM) were 0.438 and 0.288, respectively.

(Values after the supplement of paper PMC10307832.)
